Reference: patent US4443436A, “C-20-Modified macrolide derivatives of the macrolide antibiotics tylosin, desmycosin, macrocin, and lactenocin” (Eli Lilly and Company, priority 1982, dated 1984)
Converted amounts (≈) assume the structure as drawn.

What was measured:
[1] = system: Streptococcus pyogenes C203; assay: MIC, standard agar-dilution assay, Streptococcus pyogenes C203; format: cell-based; conditions: Streptococcus pyogenes C203; agar dilution
Mycoplasma hyorhinis = assay: MIC, broth-dilution microtiter test, Mycoplasma hyorhinis; format: cell-based; conditions: Mycoplasma hyorhinis; broth-dilution microtiter
Source text: (§1) The MIC's in Table X were obtained using conventional broth-dilution microtiter tests.

[2] = system: Pasteurella multocida 17E; assay: MIC, broth-dilution microtiter test, Pasteurella multocida 17E; format: cell-based; conditions: Pasteurella multocida 17E; bovine isolate; broth-dilution microtiter
Source text: as §1

Mycoplasma synoviae = assay: MIC, broth-dilution microtiter test, Mycoplasma synoviae; format: cell-based; conditions: Mycoplasma synoviae; broth-dilution microtiter
Source text: as §1

[3] = system: Haemophilus influenzae R252; assay: MIC, standard agar-dilution assay, Haemophilus influenzae R252; format: cell-based; conditions: Haemophilus influenzae R252; ampicillin-resistant strain; agar dilution
[4] = system: Staphylococcus aureus X1.1; assay: MIC, standard agar-dilution assay, Staphylococcus aureus X1.1; format: cell-based; conditions: Staphylococcus aureus X1.1; agar dilution
[5] = system: Pasteurella multocida 60A; assay: MIC, broth-dilution microtiter test, Pasteurella multocida 60A; format: cell-based; conditions: Pasteurella multocida 60A; avian isolate; broth-dilution microtiter
Source text: as §1

[6] = system: Pasteurella hemolytica 22C; assay: MIC, broth-dilution microtiter test, Pasteurella hemolytica 22C; format: cell-based; conditions: Pasteurella hemolytica 22C; broth-dilution microtiter
Source text: as §1

[7] = system: Staphylococcus aureus X400; assay: MIC, standard agar-dilution assay, Staphylococcus aureus X400; format: cell-based; conditions: Staphylococcus aureus X400; methicillin-resistant strain; agar dilution
[8] = system: Streptococcus pyogenes C203; assay: In vivo protection of mice experimentally infected with S. pyogenes C203; conditions: mice, doses given 1 and 4 hours post-infection
Protocol: The C-20 modified derivatives of this invention have shown in vivo antimicrobial activity against experimentally-induced infections in laboratory animals. When two doses of test compound were administered to mice experimentally infected with S. pyogenes C203, the activity observed was measured as an ED50 value [effective dose in mg/kg to protect 50% of the test animals: see Warren Wick, et al., J. Bacteriol. 81, 233-235 (1961)].

[9] = system: Staphylococcus epidermidis EPI2; assay: MIC, standard agar-dilution assay, Staphylococcus epidermidis EPI2; format: cell-based; conditions: Staphylococcus epidermidis EPI2; agar dilution
[10] = system: Streptococcus pneumoniae Park I; assay: microbe, parasite or virus in culture; format: cell-based; conditions: Streptococcus pneumoniae Park I; agar dilution
[11] = system: Haemophilus influenzae Holt; assay: MIC, standard agar-dilution assay, Haemophilus influenzae Holt; format: cell-based; conditions: Haemophilus influenzae Holt; ampicillin-sensitive strain; agar dilution
[12] = system: Staphylococcus aureus S13E; assay: MIC, standard agar-dilution assay, Staphylococcus aureus S13E; format: cell-based; conditions: Staphylococcus aureus S13E; agar dilution
[13] = system: Streptococcus Group D X66; assay: MIC, standard agar-dilution assay, Streptococcus Group D X66; format: cell-based; conditions: Streptococcus Group D X66; agar dilution
[14] = system: Staphylococcus aureus V41; assay: MIC, standard agar-dilution assay, Staphylococcus aureus V41; format: cell-based; conditions: Staphylococcus aureus V41; penicillin-resistant strain; agar dilution
Streptococcus bovis 80 = assay: MIC, broth-dilution microtiter test, Streptococcus bovis 80; format: cell-based; conditions: Streptococcus bovis 80; broth-dilution microtiter
Source text: as §1

Staphylococcus aureus = assay: MIC, broth-dilution microtiter test, Staphylococcus aureus; format: cell-based; conditions: broth-dilution microtiter
Source text: as §1

Mycoplasma gallisepticum = assay: MIC, broth-dilution microtiter test, Mycoplasma gallisepticum; format: cell-based; conditions: Mycoplasma gallisepticum; broth-dilution microtiter
Source text: as §1

Mycoplasma hyopneumoniae = assay: MIC, broth-dilution microtiter test, Mycoplasma hyopneumoniae; format: cell-based; conditions: Mycoplasma hyopneumoniae; broth-dilution microtiter
Source text: as §1

[15] = system: Staphylococcus epidermidis EPI1; assay: MIC, standard agar-dilution assay, Staphylococcus epidermidis EPI1; format: cell-based; conditions: Staphylococcus epidermidis EPI1; agar dilution
Streptococcus Group 9960 = assay: MIC, standard agar-dilution assay, Streptococcus Group 9960; format: cell-based; conditions: Streptococcus Group 9960; agar dilution

Compound | MIC [1] [µg/mL] | MIC (Mycoplasma hyorhinis) | MIC [2] [µg/mL] | MIC (Mycoplasma synoviae) [µg/mL] | MIC [3] [µg/mL] | MIC [4] [µg/mL] | MIC [5] [µg/mL] | MIC [6] [µg/mL] | MIC [7] [µg/mL] | ED50, Oral [8] [mg/kg × 2] | ED50, Subcutaneous [8] [mg/kg × 2] | MIC [9] [µg/mL] | MIC [10] [µg/mL] | MIC [11] [µg/mL] | MIC [12] [µg/mL] | MIC [13] [µg/mL] | MIC [14] [µg/mL] | MIC (Streptococcus bovis 80) [µg/mL] | MIC (Staphylococcus aureus) [µg/mL] | MIC (Mycoplasma gallisepticum) [µg/mL] | also measured
CCC1OC(=O)CC(O)C(C)C(OC2OC(C)C(O)C(N(C)C)C2O)C(CCOc2cccc(Oc3ccccc3)c2)CC(C)C(=O)C=CC(C)=CC1COC1OC(C)C(O)C(OC)C1OC (centres unmarked) [Compound 48, 20-DH-20-O-(m-Phenoxyphenyl)desmycosin] | 0.25 (≈ 0.265 µM) | 12.5 µg/mL (≈ 13.3 µM) | 25 (≈ 26.5 µM) | 0.19 (≈ 0.202 µM) | 16 (≈ 17 µM) | 0.5 (≈ 0.531 µM) | 25 (≈ 26.5 µM) | 25 (≈ 26.5 µM) | 0.5 (≈ 0.531 µM) | 35 | > 10 | 0.25 (≈ 0.265 µM) | 0.25 (≈ 0.265 µM) | 16 (≈ 17 µM) | 0.5 (≈ 0.531 µM) | 0.5 (≈ 0.531 µM) | 0.5 (≈ 0.531 µM) | 0.09 (≈ 0.0955 µM) | 0.78 (≈ 0.828 µM) | < 0.05 | MIC (Mycoplasma hyopneumoniae): 1.56 µg/mL (≈ 1.66 µM); MIC [15]: 0.5 µg/mL (≈ 0.531 µM); MIC (Streptococcus Group 9960): 1 µg/mL (≈ 1.06 µM)
CCC1OC(=O)CC(O)C(C)C(OC2OC(C)C(O)C(N(C)C)C2O)C(CCOc2ccccc2)CC(C)C(=O)C=CC(C)=CC1COC1OC(C)C(O)C(O)C1OC (centres unmarked) [Compound 58, 20-DH-20-O-Phenyllactenocin] | 0.06 (≈ 0.0718 µM) | 50 µg/mL (≈ 59.8 µM) | 25 (≈ 29.9 µM) | 6.25 (≈ 7.48 µM) | 16 (≈ 19.1 µM) | 0.25 (≈ 0.299 µM) | 12.5 (≈ 15 µM) | 25 (≈ 29.9 µM) | 0.25 (≈ 0.299 µM) | 50 | 3.2 | 0.25 (≈ 0.299 µM) | 0.25 (≈ 0.299 µM) | 32 (≈ 38.3 µM) | 0.25 (≈ 0.299 µM) | 4 (≈ 4.78 µM) | 0.25 (≈ 0.299 µM) | 1.56 (≈ 1.87 µM) | 0.39 (≈ 0.466 µM) | 0.78 (≈ 0.933 µM) | MIC (Mycoplasma hyopneumoniae): 6.25 µg/mL (≈ 7.48 µM); MIC [15]: 0.25 µg/mL (≈ 0.299 µM); MIC (Streptococcus Group 9960): 8 µg/mL (≈ 9.57 µM)
CCC1OC(=O)CC(O)C(C)C(OC2OC(C)C(O)C(N(C)C)C2OC(C)=O)C(CCOc2ccccc2)CC(C)C(=O)C=CC(C)=CC1COC1OC(C)C(O)C(OC)C1OC (centres unmarked) [Compound 67, 20-DH-20-O-Phenyl-2'-O-acetyldesmycosin] | 1 (≈ 1.12 µM) | 50 µg/mL (≈ 56 µM) | 25 (≈ 28 µM) | 3.12 (≈ 3.5 µM) | 16 (≈ 17.9 µM) | 0.25 (≈ 0.28 µM) | 25 (≈ 28 µM) | 25 (≈ 28 µM) | 0.5 (≈ 0.56 µM) | 9 | 1.0 | 0.12 (≈ 0.135 µM) | 0.25 (≈ 0.28 µM) | 32 (≈ 35.9 µM) | 0.25 (≈ 0.28 µM) | 4 (≈ 4.48 µM) | 0.25 (≈ 0.28 µM) | 12.5 (≈ 14 µM) | 0.78 (≈ 0.874 µM) | 0.39 (≈ 0.437 µM) | MIC (Mycoplasma hyopneumoniae): 12.5 µg/mL (≈ 14 µM); MIC [15]: 0.25 µg/mL (≈ 0.28 µM); MIC (Streptococcus Group 9960): 8 µg/mL (≈ 8.97 µM)
CCC1OC(=O)CC(O)C(C)C(OC2OC(C)C(OC(C)=O)C(N(C)C)C2OC(C)=O)C(CCOc2ccccc2)CC(C)C(=O)C=CC(C)=CC1COC1OC(C)C(O)C(OC)C1OC (centres unmarked) [Compound 68, 20-DH-20-O-Phenyl-2',4'-di-O-acetyldesmycosin] | 0.5 (≈ 0.535 µM) | -- (Not active at 50 mcg/ml, the highest level tested) | 25 (≈ 26.8 µM) | 3.12 (≈ 3.34 µM) | 16 (≈ 17.1 µM) | 0.5 (≈ 0.535 µM) | 25 (≈ 26.8 µM) | 25 (≈ 26.8 µM) | 0.5 (≈ 0.535 µM) | 16 | 2.9 | 0.12 (≈ 0.128 µM) | 0.5 (≈ 0.535 µM) | 32 (≈ 34.3 µM) | 0.5 (≈ 0.535 µM) | 4 (≈ 4.28 µM) | 0.5 (≈ 0.535 µM) | 6.25 (≈ 6.69 µM) | 0.39 (≈ 0.418 µM) | 0.39 (≈ 0.418 µM) | MIC (Mycoplasma hyopneumoniae): 12.5 µg/mL (≈ 13.4 µM); MIC [15]: 0.5 µg/mL (≈ 0.535 µM); MIC (Streptococcus Group 9960): 8 µg/mL (≈ 8.56 µM)
